Results from patent publication US12415803B2, “Fused imidazopyridines as reversible inhibitors of Brutons Tyrosine Kinase (BTK)” (Merck Patent GmbH, priority 2018, dated 2025).

What was measured:
full-length human BTK = full-length human BTK (Homo sapiens (Human), UniProt Q06187); experiment: BTK IC50 Enzyme Assay (microfluidic off-chip mobility shift kinase assay); assay type: biochemical; settings: Btk Enzymatic IC50 Assay, 90 min at 27 C;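 further: Read-out separates phosphorylated peptide product from substrate by their charge-to-mass difference, with IC50 fitted from log inhibitor concentration against percent enzyme activity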
Chain of full-length human BTK (Q06187 whole entry): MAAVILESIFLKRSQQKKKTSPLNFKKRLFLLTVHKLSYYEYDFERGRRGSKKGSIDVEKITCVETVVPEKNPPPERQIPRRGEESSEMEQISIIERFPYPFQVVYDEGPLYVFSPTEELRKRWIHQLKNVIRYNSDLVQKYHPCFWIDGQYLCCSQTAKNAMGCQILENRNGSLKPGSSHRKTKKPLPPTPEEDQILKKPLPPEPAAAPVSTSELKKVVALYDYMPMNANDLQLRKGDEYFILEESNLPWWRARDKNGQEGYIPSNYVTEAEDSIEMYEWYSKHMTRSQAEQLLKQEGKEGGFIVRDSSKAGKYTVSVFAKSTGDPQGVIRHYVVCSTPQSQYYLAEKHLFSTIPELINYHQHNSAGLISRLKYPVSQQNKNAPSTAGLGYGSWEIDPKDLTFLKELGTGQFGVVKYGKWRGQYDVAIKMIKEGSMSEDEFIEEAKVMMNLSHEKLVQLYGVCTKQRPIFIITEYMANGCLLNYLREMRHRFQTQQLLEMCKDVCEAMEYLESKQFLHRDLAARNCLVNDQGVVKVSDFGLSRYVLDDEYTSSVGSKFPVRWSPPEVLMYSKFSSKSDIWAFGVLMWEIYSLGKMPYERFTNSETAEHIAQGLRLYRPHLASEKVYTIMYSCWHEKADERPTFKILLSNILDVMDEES

Btk = Btk (Homo sapiens (Human), UniProt Q06187); experiment: Btk PBMC IC50 Cell Assay (anti-IgM-induced CD69 expression on B cells); assay type: cell-based; settings: anti-IgM-induced CD69 expression on CD19 positive cells in human PBMCs;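 further: freshly isolated human PBMCs, IC50 from concentration-response of the share of CD19+ cells expressing CD69 after anti-IgM BCR stimulation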
Chain of Btk (Q06187 whole entry): as above

Row | SMILES | IC50 (full-length human BTK) | IC50 (Btk)
1 | Cc1c(-c2nc3c(-c4ccc5c(c4)CCCCC5NC(=O)c4nnc(C(C)(C)C)o4)ccnc3[nH]2)cnn1C(C)C (stereo not shown) [Compound 84, 5-tert-butyl-N-(2-{2-[5-methyl-1-(propan-2-yl)-1H-pyrazol-4-yl]-3H-imidazo[4,5-b]pyridin-7-yl}-6,7,8,9-tetrahydro-5H-benzo[7]annulen-5-yl)-1,3,4-oxadiazole-2-carboxamide] | < 1 nM | 1 to 10 nM
2 | Cc1nn(C)c(C)c1-c1nc2c(-c3ccc4c(c3)CCCC[C@@H]4NC(=O)c3nc(C(C)(C)C)no3)ccnc2[nH]1 [Compound 141, 3-tert-Butyl-[1,2,4]oxadiazole-5-carboxylic acid {(S)-2-[2-(1,3,5-trimethyl-1H-pyrazol-4-yl)-3H-imidazo[4,5-b]pyridin-7-yl]-6,7,8,9-tetrahydro-5H-benzocyclohepten-5-yl}-amide] | 10 to 100 nM | > 100 nM
3 | Cn1cc(-c2nc3c(-c4ccc5c(c4)CCCC[C@@H]5NC(=O)c4nnc(C(C)(C)C)o4)ccnc3[nH]2)cn1 [Compound 49, 5-tert-Butyl-[1,3,4]oxadiazole-2-carboxylic acid {(S)-2-[2-(1-methyl-1H-pyrazol-4-yl)-3H-imidazo[4,5-b]pyridin-7-yl]-6,7,8,9-tetrahydro-5H-benzocyclohepten-5-yl}-amide] | < 1 nM | 1 to 10 nM
4 | Cc1nn(C(C)C)cc1-c1nc2c(-c3ccc4c(c3)CCCC[C@@H]4NC(=O)c3noc(C(C)(C)C)n3)ccnc2[nH]1 [Compound 62, 5-tert-Butyl-[1,2,4]oxadiazole-3-carboxylic acid {(S)-2-[2-(1-isopropyl-3-methyl-1H-pyrazol-4-yl)-3H-imidazo[4,5-b]pyridin-7-yl]-6,7,8,9-tetrahydro-5H-benzocyclohepten-5-yl}-amide] | 1 to 10 nM | 10 to 100 nM
5 | Cc1nn(C)c(C)c1-c1nc2c(-c3ccc4c(c3)CCC[C@@H]4NC(=O)c3nc(C(C)(C)C)no3)ccnc2[nH]1 [Compound 73, 3-tert-butyl-N-[(1S)-6-[2-(1,3,5-trimethyl-1H-pyrazol-4-yl)-3H-imidazo[4,5-b]pyridin-7-yl]-1,2,3,4-tetrahydronaphthalen-1-yl]-1,2,4-oxadiazole-5-carboxamide] | 1 to 10 nM | 1 to 10 nM
6 | Cc1nn(C(C)C)c(C)c1-c1nc2c(-c3ccc4c(c3)CCCC[C@H]4NC(=O)c3nnc(C(C)(C)C)o3)ccnc2[nH]1 [Compound 87, 5-tert-butyl-N-[(5R)-2-{2-[3,5-dimethyl-1-(propan-2-yl)-1H-pyrazol-4-yl]-3H-imidazo[4,5-b]pyridin-7-yl}-6,7,8,9-tetrahydro-5H-benzo[7]annulen-5-yl]-1,3,4-oxadiazole-2-carboxamide] | < 1 nM | 1 to 10 nM
7 | Cc1c(-c2nc3c(-c4ccc5c(c4)CCC[C@H]5NC(=O)c4noc(C5(C)CC5)n4)ccnc3[nH]2)cnn1C1CCOCC1 [Compound 162, 5-(1-Methyl-cyclopropyl)-[1,2,4]oxadiazole-3-carboxylic acid ((R)-6-{2-[5-methyl-1-(tetrahydro-pyran-4-yl)-1H-pyrazol-4-yl]-3H-imidazo[4,5-b]pyridin-7-yl}-1,2,3,4-tetrahydro-naphthalen-1-yl)-amide] | < 1 nM | 1 to 10 nM
8 | CC(C)n1cc(-c2nc3nccc(-c4ccc5c(c4)CCCC[C@H]5NC(=O)c4nc(C(C)(C)C)no4)c3[nH]2)cn1 [Compound 82] | < 1 nM | < 1 nM
9 | Cn1cc(-c2nc3c(-c4ccc5c(c4)CCCCC5NC(=O)N4CC(OC(C)(C)C)C4)ccnc3[nH]2)cn1 (stereo not shown) [Compound 43, 3-tert-Butoxy-azetidine-1-carboxylic acid {2-[2-(1-methyl-1H-pyrazol-4-yl)-3H-imidazo[4,5-b]pyridin-7-yl]-6,7,8,9-tetrahydro-5H-benzocyclohepten-5-yl}-amide] | < 1 nM | 1 to 10 nM
10 | Cc1c(-c2nc3c(-c4ccc5c(c4)CCC[C@H]5NC(=O)N4CC(OC(C)(C)C)C4)ccnc3[nH]2)cnn1C1CCOCC1 [Compound 158, 3-tert-Butoxy-azetidine-1-carboxylic acid ((R)-6-{2-[5-methyl-1-(tetrahydro-pyran-4-yl)-1H-pyrazol-4-yl]-3H-imidazo[4,5-tetrahydro-naphthalen-1-b]pyridin-7-yl}-1,2,3,4-tetrahydro-naphthalen-1-yl)-amide] | 1 to 10 nM | 1 to 10 nM
11 | Cc1nn(C(C)C)cc1-c1nc2c(-c3ccc4c(c3)CCCCC4NC(=O)c3nc(C(C)(C)C)no3)ccnc2[nH]1 (stereo in doubt) [Compound 64, 3-tert-Butyl-[1,2,4]oxadiazole-5-carboxylic acid {(R)-2-[2-(1-isopropyl-3-methyl-1H-pyrazol-4-yl)-3H-imidazo[4,5-b]pyridin-7-yl]-6,7,8,9-tetrahydro-5H-benzocyclohepten-5-yl}-amide] | 1 to 10 nM | 10 to 100 nM
12 | Cc1cc(-c2nc3c(-c4ccc5c(c4)CCCCC5NC(=O)c4nc(C5(C)CC5)no4)ccnc3[nH]2)nn1C(C)C (stereo not shown) [Compound 117, 3-(1-Methyl-cyclopropyl)-[1,2,4]oxadiazole-5-carboxylic acid {2-[2-(1-isopropyl-5-methyl-1H-pyrazol-3-yl)-3H-imidazo[4,5-b]pyridin-7-yl]-6,7,8,9-tetrahydro-5H-benzocyclohepten-5-yl}-amide] | < 1 nM | 1 to 10 nM
13 | Cn1ccc(-c2nc3c(-c4ccc5c(c4)CCCCC5NC(=O)c4nc(C(C)(C)C)no4)ccnc3[nH]2)n1 (stereo not shown) [Compound 109, 3-tert-Butyl-[1,2,4]oxadiazole-5-carboxylic acid {2-[2-(1-methyl-1H-pyrazol-3-yl)-3H-imidazo[4,5-b]pyridin-7-yl]-6,7,8,9-tetrahydro-5H-benzocyclohepten-5-yl}-amide] | < 1 nM | < 1 nM
14 | Cc1nn(C)c(C)c1-c1nc2c(-c3ccc4c(c3)OCCC[C@@H]4NC(=O)c3noc(C(C)(C)C)n3)ccnc2[nH]1 [Compound 16, 5-tert-Butyl-[1,2,4]oxadiazole-3-carboxylic acid {(S)-8-[2-(1,3,5-trimethyl-1H-pyrazol-4-yl)-3H-imidazo[4,5-b]pyridin-7-yl]-2,3,4,5-tetrahydro-benzo[b]oxepin-5-yl}-amide] | < 1 nM | 1 to 10 nM
15 | Cn1cc(-c2nc3c(-c4ccc5c(c4)CCCC[C@@H]5NC(=O)c4cc(C5(C)CC5)on4)ccnc3[nH]2)cn1 [Compound 57, 5-(1-Methyl-cyclopropyl)-isoxazole-3-carboxylic acid {(S)-2-[2-(1-methyl-1H-pyrazol-4-yl)-3H-imidazo[4,5-b]pyridin-7-yl]-6,7,8,9-tetrahydro-5H-benzocyclohepten-5-yl}-amide] | 1 to 10 nM | > 100 nM
16 | Cn1cc(-c2nc3c(-c4ccc5c(c4)OCCCC5NC(=O)c4nc(C(C)(C)C)no4)ccnc3[nH]2)cn1 (stereo not shown) [Compound 38, 3-tert-Butyl-[1,2,4]oxadiazole-5-carboxylic acid {8-[2-(1-methyl-1H-pyrazol-4-yl)-3H-imidazo[4,5-b]pyridin-7-yl]-2,3,4,5-tetrahydro-benzo[b]oxepin-5-yl}-amide] | < 1 nM | 1 to 10 nM
17 | Cc1c(-c2nc3c(-c4ccc5c(c4)CCCC5NC(=O)c4nc(C5(C)CC5)no4)ccnc3[nH]2)cnn1C(C)C (stereo not shown) [Compound 146, 3-(1-Methyl-cyclopropyl)-[1,2,4]oxadiazole-5-carboxylic acid {6-[2-(1-isopropyl-5-methyl-1H-pyrazol-4-yl)-3H-imidazo[4,5-b]pyridin-7-yl]-1,2,3,4-tetrahydro-naphthalen-1-yl}-amide] | 1 to 10 nM | 1 to 10 nM
18 | Cc1c(-c2nc3c(-c4ccc5c(c4)CCC[C@@H]5NC(=O)N4CC(OC(C)(C)C)C4)ccnc3[nH]2)cnn1C1CCOCC1 [Compound 159, 3-tert-Butoxy-azetidine-1-carboxylic acid ((S)-6-{2-[5-methyl-1-(tetrahydro-pyran-4-yl)-1H-pyrazol-4-yl]-3H-imidazo[4,5-b]pyridin-7-yl}-1,2,3,4-tetrahydro-naphthalen-1-yl)-amide] | 1 to 10 nM | > 100 nM
19 | Cc1nn(C)c(C)c1-c1nc2c(-c3ccc4c(c3)OCCCC4NC(=O)c3noc(C(C)(C)C)n3)ccnc2[nH]1 (stereo not shown) [Compound 14, 5-tert-Butyl-[1,2,4]oxadiazole-3-carboxylic acid {8-[2-(1,3,5-trimethyl-1H-pyrazol-4-yl)-3H-imidazo[4,5-b]pyridin-7-yl]-2,3,4,5-tetrahydro-benzo[b]oxepin-5-yl}-amide] | < 1 nM | 10 to 100 nM
20 | Cn1cc(-c2nc3c(-c4ccc5c(c4)OCCC[C@H]5NC(=O)c4noc(C(C)(C)C)n4)ccnc3[nH]2)cn1 [Compound 46, 5-tert-Butyl-[1,2,4]oxadiazole-3-carboxylic acid {(R)-8-[2-(1-methyl-1H-pyrazol-4-yl)-3H-imidazo[4,5-b]pyridin-7-yl]-2,3,4,5-tetrahydro-benzo[b]oxepin-5-yl}-amide] | < 1 nM | 1 to 10 nM
21 | CC(C)n1cc(-c2nc3c(-c4ccc5c(c4)CCCC[C@@H]5NC(=O)c4cc(C(C)(C)C)on4)ccnc3[nH]2)cn1 [Compound 93, 5-tert-butyl-N-[(5S)-2-{2-[1-(propan-2-yl)-1H-pyrazol-4-yl]-3H-imidazo[4,5-b]pyridin-7-yl}-6,7,8,9-tetrahydro-5H-benzo[7]annulen-5-yl]-1,2-oxazole-3-carboxamide] | 1 to 10 nM | 
22 | Cc1nn(C)c(C)c1-c1nc2c(-c3ccc4c(c3)CCCC[C@H]4NC(=O)c3noc(C(C)(C)C)n3)ccnc2[nH]1 [Compound 9, 5-tert-Butyl-[1,2,4]oxadiazole-3-carboxylic acid {(R)-2-[2-(1,3,5-trimethyl-1H-pyrazol-4-yl)-3H-imidazo[4,5-b]pyridin-7-yl]-6,7,8,9-tetrahydro-5H-benzocyclohepten-5-yl}-amide] | > 100 nM | 
23 | CCn1nc(-c2nc3nccc(-c4ccc5c(c4)CCCCC5NC(=O)c4nc(C(C)(C)C)no4)c3[nH]2)cc1C (stereo not shown) [Compound 97, 3-tert-butyl-N-{2-[2-(1-ethyl-5-methyl-1H-pyrazol-3-yl)-3H-imidazo[4,5-b]pyridin-7-yl]-6,7,8,9-tetrahydro-5H-benzo[7]annulen-5-yl}-1,2,4-oxadiazole-5-carboxamide] | < 1 nM | 
